According to patent EP0908457B1, “3-(1,2-benzisothiazol- and isoxazol-5-Y1)-2,4(1H,3H)-pyrimidinedione or thione and 3-(1,2-benzisothiazol- and isoxazol-5-y1)-4(3H)-pyrimidinone or thione herbicidal agents” (BASF AKTIENGESELLSCHAFT, priority 1997, dated 1999):

Columns and labels:
Sagittaria pygmaea, L. [1] = assay: Preemergence weed control under flooded paddy conditions, SAGPY (Arrowhead (Pygmaea)); type: in vivo; settings: preemergence weeds, flooded paddy, herbicidal effect rating 0-9, three to four weeks after treatment
Cyperus iria [2] = assay: Preemergence weed control under flooded paddy conditions, CYPIR (Rice Flatsedge); type: in vivo; settings: preemergence weeds, flooded paddy, herbicidal effect rating 0-9, three to four weeks after treatment
[3] = tested on: Cyperus serotinus, Rottb.; assay: Preemergence weed control under flooded paddy conditions, CYPSE (Flatsedge); type: in vivo; settings: preemergence weeds, herbicidal effect rating 0-9, three to four weeks after treatment
Cyperus iria [4] = assay: Postemergence weed control under flooded paddy conditions, CYPIR (Rice Flatsedge); type: in vivo; settings: rated three to four weeks after treatment
[5] = tested on: Monochoria vaginalis, Presl.; assay: Postemergence weed control under flooded paddy conditions, MOOVA (Monochoria); type: in vivo; settings: rated three to four weeks after treatment
[6] = tested on: Echinochloa oryzoides (Ard.) Fritsch.; assay: Preemergence weed control under flooded paddy conditions, ECHORC (Watergrass (Calif.)); type: in vivo; settings: preemergence weeds, flooded paddy, herbicidal effect rating 0-9, three to four weeks after treatment
[7] = tested on: Echinochloa oryzoides (Ard.) Fritsch.; assay: Postemergence weed control under flooded paddy conditions, ECHORC (Watergrass (Calif.)); type: in vivo; settings: rated three to four weeks after treatment
[8] = tested on: Cyperus serotinus, Rottb.; assay: Postemergence weed control under flooded paddy conditions, CYPSE (Flatsedge); type: in vivo; settings: rated three to four weeks after treatment
[9] = tested on: Monochoria vaginalis, Presl.; assay: Preemergence weed control under flooded paddy conditions, MOOVA (Monochoria); type: in vivo; settings: preemergence weeds, flooded paddy, herbicidal effect rating 0-9, three to four weeks after treatment
[10] = tested on: Oryza sativa, (L.) Tebonnet; assay: Rice tolerance to post-transplant applications under flooded paddy conditions (Example 188), ORYSAT (Rice, Tebonnet); settings: rated three to four weeks after treatment
[11] = tested on: Oryza sativa, (L.) Tebonnet; assay: Rice tolerance to post-transplant applications under flooded paddy conditions (Example 187), ORYSAT (Rice, Tebonnet); settings: herbicidal effect rating 0-9, three to four weeks after treatment
Sagittaria pygmaea, L. [12] = assay: Postemergence weed control under flooded paddy conditions, SAGPY (Arrowhead (Pygmaea)); type: in vivo; settings: rated three to four weeks after treatment

In the case of `Cn1c(C(F)(F)F)cc(=O)n(-c2ccc3snc(C(=O)C(C)(C)C)c3c2)c1=O` [Example 432, 2,4(1H,3H)-Pyrimidinedione, 1-methyl-3-(3-pivaloyl-1,2-benzisothiazol-5-yl)-6-(trifluoromethyl)-], the SAGPY (Sagittaria pygmaea, L. [1]; 0.0320 kg/ha) is reported as 0.0, the SAGPY (Sagittaria pygmaea, L. [1]; 0.0620 kg/ha) is reported as 3.5 and the SAGPY (Sagittaria pygmaea, L. [1]; 0.1250 kg/ha) is reported as 7.5. For the same compound, the SAGPY (Sagittaria pygmaea, L. [1]; 0.2500 kg/ha) was 8.5, the CYPIR (Cyperus iria [2]; 0.0320 kg/ha) was 8.0 and the CYPIR (Cyperus iria [2]; 0.0620 kg/ha) was 9.0. The CYPIR (Cyperus iria [2]; 0.1250 kg/ha) was 9.0, the CYPIR (Cyperus iria [2]; 0.2500 kg/ha) was 9.0 and the CYPSE ([3]; 0.0320 kg/ha) was 0.0. It also gave a CYPSE ([3]; 0.0620 kg/ha) of 3.5, a CYPSE ([3]; 0.1250 kg/ha) of 6.5 and a CYPSE ([3]; 0.2500 kg/ha) of 9.0. The “herbicidal effect rating, CYPIR” value (Cyperus iria [4]; Rate 0.0320 kg/ha) was 8.0, the “herbicidal effect rating, CYPIR” value (Cyperus iria [4]; Rate 0.0620 kg/ha) was 8.0 and the “herbicidal effect rating, CYPIR” value (Cyperus iria [4]; Rate 0.1250 kg/ha) was 9.0. The “herbicidal effect rating, CYPIR” value (Cyperus iria [4]; Rate 0.2500 kg/ha) was 9.0, the “herbicidal effect rating, MOOVA” value ([5]; Rate 0.0320 kg/ha) was 9.0 and the “herbicidal effect rating, MOOVA” value ([5]; Rate 0.0620 kg/ha) was 9.0. For the same compound, the “herbicidal effect rating, MOOVA” value ([5]; Rate 0.1250 kg/ha) was 9.0, the “herbicidal effect rating, MOOVA” value ([5]; Rate 0.2500 kg/ha) was 9.0 and the ECHORC ([6]; 0.0320 kg/ha) was 9.0. For the same compound, the ECHORC ([6]; 0.0620 kg/ha) was 9.0, the ECHORC ([6]; 0.1250 kg/ha) was 9.0 and the ECHORC ([6]; 0.2500 kg/ha) was 9.0. For the same compound, the “herbicidal effect rating, ECHORC” value ([7]; Rate 0.0320 kg/ha) was 9.0, the “herbicidal effect rating, ECHORC” value ([7]; Rate 0.0620 kg/ha) was 9.0 and the “herbicidal effect rating, ECHORC” value ([7]; Rate 0.1250 kg/ha) was 9.0. For the same compound, the “herbicidal effect rating, ECHORC” value ([7]; Rate 0.2500 kg/ha) was 9.0, the “herbicidal effect rating, CYPSE” value ([8]; Rate 0.0320 kg/ha) was 0.0 and the “herbicidal effect rating, CYPSE” value ([8]; Rate 0.0620 kg/ha) was 4.0. For the same compound, the “herbicidal effect rating, CYPSE” value ([8]; Rate 0.1250 kg/ha) was 7.0, the “herbicidal effect rating, CYPSE” value ([8]; Rate 0.2500 kg/ha) was 9.0 and the MOOVA ([9]; 0.0320 kg/ha) was 9.0. For the same compound, the MOOVA ([9]; 0.0620 kg/ha) was 9.0, the MOOVA ([9]; 0.1250 kg/ha) was 9.0 and the MOOVA ([9]; 0.2500 kg/ha) was 9.0. For the same compound, the “herbicidal effect rating, ORYSAT (rice tolerance)” value (shortened to “herbicidal effect rating, ORYSAT”) ([10]; Rate 0.0320 kg/ha) was 4.0, the “herbicidal effect rating, ORYSAT” value ([10]; Rate 0.0620 kg/ha) was 4.0 and the “herbicidal effect rating, ORYSAT” value ([10]; Rate 0.1250 kg/ha) was 7.0. The “herbicidal effect rating, ORYSAT” value ([10]; Rate 0.2500 kg/ha) was 7.0, the ORYSAT ([11]; 0.0320 kg/ha) was 6.0 and the ORYSAT ([11]; 0.0620 kg/ha) was 6.0. The ORYSAT ([11]; 0.1250 kg/ha) was 6.5, the ORYSAT ([11]; 0.2500 kg/ha) was 7.5 and the “herbicidal effect rating, SAGPY” value (Sagittaria pygmaea, L. [12]; Rate 0.0320 kg/ha) was 0.0. The “herbicidal effect rating, SAGPY” value (Sagittaria pygmaea, L. [12]; Rate 0.0620 kg/ha) was 0.0, the “herbicidal effect rating, SAGPY” value (Sagittaria pygmaea, L. [12]; Rate 0.1250 kg/ha) was 2.0 and the “herbicidal effect rating, SAGPY” value (Sagittaria pygmaea, L. [12]; Rate 0.2500 kg/ha) was 4.0.
